Species on record: Rattus norvegicus
Test: DrugMatrix - Regimen: Daily Repeat
Type: toxicity, organism-based, Sprague-Dawley
Set-up: regimen Daily Repeat, gender Male, age 6-8 weeks
Details: in vivo, sc, route subcutaneous, […]; for ABSOLUTE BASOPHIL / ABSOLUTE EOSINOPHIL / ABSOLUTE LYMPHOCYTE / ABSOLUTE MONOCYTE / ABSOLUTE SEGMENTED NEUTROPHIL / BASOPHIL / EOSINOPHIL / ERYTHROCYTE COUNT / HEMATOCRIT / HEMOGLOBIN / LEUKOCYTE COUNT / LYMPHOCYTE / MEAN CORPUSCULAR HEMOGLOBIN / MEAN CORPUSCULAR HEMOGLOBIN CONCENTRATION / MEAN CORPUSCULAR VOLUME / MONOCYTE / NEUTROPHIL / NUCLEATED RED BLOOD CELLS / PLATELET COUNT: tissue Blood; for ALANINE AMINOTRANSFERASE / ALBUMIN / ALKALINE PHOSPHATASE / ASPARTATE AMINOTRANSFERASE / BLOOD UREA NITROGEN / CARBON DIOXIDE / CHLORIDE / CHOLESTEROL / CREATINE PHOSPHOKINASE / CREATININE / GLUCOSE / LACTATE DEHYDROGENASE / LIPASE / PHOSPHORUS / POTASSIUM / SODIUM / TOTAL BILIRUBIN / TOTAL PROTEIN / URIC ACID: tissue Plasma
[1] = 56 mg/kg, 120 h, dose level M1, time 5 day
[2] = 72 h, dose 5.6 mg/Kg, dose level Low, time 3 day
[3] = 120 h, dose 5.6 mg/Kg, dose level Low, time 5 day

## O=C(Nc1ccc(Br)cc1)c1cc(Br)cc(Br)c1O [TRIBROMSALAN]
[1]
  ABSOLUTE BASOPHIL: 0 CELLS/uL
  ABSOLUTE EOSINOPHIL: 183 CELLS/uL
  ABSOLUTE LYMPHOCYTE: 10057 CELLS/uL
  ABSOLUTE MONOCYTE: 145 CELLS/uL
  ABSOLUTE SEGMENTED NEUTROPHIL: 1315 CELLS/uL
  BASOPHIL: 0%
  EOSINOPHIL: 1%
  ERYTHROCYTE COUNT: 5.63 x10E6/uL
  HEMATOCRIT: 34.6%
  HEMOGLOBIN: 12.83 G/DL
  LEUKOCYTE COUNT: 11.7 x10E3/uL
  LYMPHOCYTE: 86.33%
  MEAN CORPUSCULAR HEMOGLOBIN: 22.8 pg
  MEAN CORPUSCULAR HEMOGLOBIN CONCENTRATION: 37.1 G/DL
  MEAN CORPUSCULAR VOLUME: 61.47 fL
  MONOCYTE: 1.33%
  NEUTROPHIL: 11.33%
  NUCLEATED RED BLOOD CELLS: 0 /100WBC
  PLATELET COUNT: 1090 x10E3/uL
  ALANINE AMINOTRANSFERASE: 51 u/L
  ALBUMIN: 3.77 G/DL
  ALKALINE PHOSPHATASE: 376.33 u/L
  ASPARTATE AMINOTRANSFERASE: 90 u/L
  BLOOD UREA NITROGEN: 16 mg/dL
  CARBON DIOXIDE: 24 mmol/L
  CHLORIDE: 99 MEQ/L
  CHOLESTEROL: 81.33 mg/dL
  CREATINE PHOSPHOKINASE: 578.33 u/L
  CREATININE: 0.19 mg/dL
  GLUCOSE: 142 mg/dL
  LACTATE DEHYDROGENASE: 171.33 u/L
  LIPASE: 7.33 u/L
  PHOSPHORUS: 11.13 mg/dL
  POTASSIUM: 6.14 MEQ/L
  SODIUM: 146.5 MEQ/L
  TOTAL BILIRUBIN: 0.23 mg/dL
  TOTAL PROTEIN: 6.23 G/DL
  URIC ACID: 1.13 mg/dL
[2]
  ABSOLUTE BASOPHIL: 0 CELLS/uL
  ABSOLUTE EOSINOPHIL: 0 CELLS/uL
  ABSOLUTE LYMPHOCYTE: 7670 CELLS/uL
  ABSOLUTE MONOCYTE: 0 CELLS/uL
  ABSOLUTE SEGMENTED NEUTROPHIL: 730 CELLS/uL
  BASOPHIL: 0%
  EOSINOPHIL: 0%
  ERYTHROCYTE COUNT: 4.92 x10E6/uL
  HEMATOCRIT: 32.37%
  HEMOGLOBIN: 12.33 G/DL
  LEUKOCYTE COUNT: 8.4 x10E3/uL
  LYMPHOCYTE: 91.67%
  MEAN CORPUSCULAR HEMOGLOBIN: 25.1 pg
  MEAN CORPUSCULAR HEMOGLOBIN CONCENTRATION: 38.13 G/DL
  MEAN CORPUSCULAR VOLUME: 65.77 fL
  MONOCYTE: 0%
  NEUTROPHIL: 8.33%
  NUCLEATED RED BLOOD CELLS: 0 /100WBC
  PLATELET COUNT: 800.67 x10E3/uL
  ALANINE AMINOTRANSFERASE: 47.33 u/L
  ALBUMIN: 4.3 G/DL
  ALKALINE PHOSPHATASE: 403.67 u/L
  ASPARTATE AMINOTRANSFERASE: 74.33 u/L
  BLOOD UREA NITROGEN: 15.33 mg/dL
  CARBON DIOXIDE: 24.33 mmol/L
  CHLORIDE: 101.67 MEQ/L
  CHOLESTEROL: 72.33 mg/dL
  CREATINE PHOSPHOKINASE: 270.67 u/L
  CREATININE: 0.18 mg/dL
  GLUCOSE: 163 mg/dL
  LACTATE DEHYDROGENASE: 143 u/L
  LIPASE: 8.33 u/L
  PHOSPHORUS: 13.13 mg/dL
  POTASSIUM: 6.25 MEQ/L
  SODIUM: 144.7 MEQ/L
  TOTAL BILIRUBIN: 0.3 mg/dL
  TOTAL PROTEIN: 5.97 G/DL
  URIC ACID: 2.13 mg/dL
[3]
  ABSOLUTE BASOPHIL: 0 CELLS/uL
  ABSOLUTE EOSINOPHIL: 126 CELLS/uL
  ABSOLUTE LYMPHOCYTE: 12819 CELLS/uL
  ABSOLUTE MONOCYTE: 78 CELLS/uL
  ABSOLUTE SEGMENTED NEUTROPHIL: 1743.67 CELLS/uL
  BASOPHIL: 0%
  EOSINOPHIL: 0.67%
  ERYTHROCYTE COUNT: 5.88 x10E6/uL
  HEMATOCRIT: 36.87%
  HEMOGLOBIN: 13.53 G/DL
  LEUKOCYTE COUNT: 14.77 x10E3/uL
  LYMPHOCYTE: 87%
  MEAN CORPUSCULAR HEMOGLOBIN: 23.07 pg
  MEAN CORPUSCULAR HEMOGLOBIN CONCENTRATION: 36.77 G/DL
  MEAN CORPUSCULAR VOLUME: 62.77 fL
  MONOCYTE: 0.67%
  NEUTROPHIL: 11.67%
  NUCLEATED RED BLOOD CELLS: 0 /100WBC
  PLATELET COUNT: 1236 x10E3/uL
  ALANINE AMINOTRANSFERASE: 46.33 u/L
  ALBUMIN: 4 G/DL
  ALKALINE PHOSPHATASE: 354.67 u/L
  ASPARTATE AMINOTRANSFERASE: 82.33 u/L
  BLOOD UREA NITROGEN: 17.67 mg/dL
  CARBON DIOXIDE: 27.33 mmol/L
  CHLORIDE: 101.67 MEQ/L
  CHOLESTEROL: 65.33 mg/dL
  CREATINE PHOSPHOKINASE: 261.33 u/L
  CREATININE: 0.2 mg/dL
  GLUCOSE: 152.67 mg/dL
  LACTATE DEHYDROGENASE: 145.67 u/L
  LIPASE: 8 u/L
  PHOSPHORUS: 11.87 mg/dL
  POTASSIUM: 6.3 MEQ/L
  SODIUM: 145.97 MEQ/L
  TOTAL BILIRUBIN: 0.13 mg/dL
  TOTAL PROTEIN: 5.97 G/DL
  URIC ACID: 1.5 mg/dL

— ChEMBL document CHEMBL3885881, “DrugMatrix”
